Molecules are shown by their SMILES.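 1) Cells in 96-well plates. 2) Compound, 48 h, 5 concentrations. 3) Linear interpolation between surrounding doses. 4) Unreached endpoint = highest concentration. The concentration for 50% growth inhibition is given as GI50. TGI denotes the concentration required for complete inhibition of growth.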

Among the test systems are UACC-257 melanoma; SF-539 CNS; SN12C renal; TK-10 renal; LOX IMVI melanoma; IGROV1 ovarian; ACHN renal; NCI-H522 lung; U251 CNS; HT29 colon.
What all share (assay): NCI-60 cell line screen, 48 h

On to `CCOP(=O)(CC(=O)C1=C(O)C(CCCCNC(=O)OC(C)(C)C)N(Cc2ccccc2)C1=O)OCC` (centres undefined), for which the TGI in the assay on UACC-257 melanoma, in the assay with SF-539 CNS, in the assay on SN12C renal, in the assay on TK-10 renal, in the assay on LOX IMVI melanoma and in the assay with IGROV1 ovarian was greater than 100 µM in each case. Besides, the TGI with ACHN renal, in the assay with NCI-H522 lung, with U251 CNS and in the assay with HT29 colon was greater than 100 µM in each case.

For `N=C(N)SCc1ccc([N+](=O)[O-])cc1[N+](=O)[O-]`, the GI50 in the assay with UACC-257 melanoma was 4.44 µM; with SF-539 CNS, 11 µM; with SN12C renal, 12.1 µM; with TK-10 renal, 5.9 µM; in the assay on LOX IMVI melanoma, 8.66 µM; in the assay with IGROV1 ovarian, 4.33 µM. For the same compound, the GI50 with ACHN renal is 8.04 µM; with NCI-H522 lung, 1.48 µM; with U251 CNS, 19.2 µM; in the assay on HT29 colon it was 5.44 µM. Besides, the TGI is 17 µM in the assay on UACC-257 melanoma; 25.7 µM in the assay on SF-539 CNS; 27.2 µM in the assay with SN12C renal; 19.7 µM in the assay with TK-10 renal; 25 µM with LOX IMVI melanoma; 15.3 µM in the assay with IGROV1 ovarian. Further, the TGI is 21.1 µM in the assay on ACHN renal, 3.12 µM with NCI-H522 lung, greater than 100 µM in the assay with U251 CNS and 18.9 µM with HT29 colon.

Turning to `CN(C)c1ccc(/C=N/NC(=O)c2cccc3ccccc23)c(Cl)c1`, the GI50 is 1.07 µM in the assay with UACC-257 melanoma; 1.73 µM with SF-539 CNS; 8.85 µM in the assay with SN12C renal; 5 µM in the assay on TK-10 renal; 1.86 µM with LOX IMVI melanoma; 3.44 µM in the assay on IGROV1 ovarian. The GI50 was 5.65 µM in the assay with ACHN renal, 1.12 µM with NCI-H522 lung, 1.1 µM in the assay with U251 CNS and 0.503 µM in the assay on HT29 colon. Also, the TGI is 97.5 µM in the assay with UACC-257 melanoma; 26.1 µM in the assay on SF-539 CNS; greater than 100 µM in the assay with SN12C renal; 39.3 µM with TK-10 renal; greater than 100 µM in the assay with LOX IMVI melanoma; greater than 100 µM in the assay on IGROV1 ovarian. In addition, the TGI in the assay on ACHN renal is greater than 100 µM; in the assay on NCI-H522 lung it was 39.4 µM; with U251 CNS, 26.2 µM; in the assay with HT29 colon, 15.8 µM.

With `Nc1ncnc2nn(C3OC(CO)C(O)C3O)nc12` (centres undefined), the TGI in the assay on UACC-257 melanoma was greater than 87.1 µM; with SF-539 CNS, 58.5 µM; with SN12C renal, greater than 68.5 µM; in the assay on TK-10 renal it was greater than 35.4 µM; in the assay with LOX IMVI melanoma, 23 µM; in the assay on IGROV1 ovarian, 39.1 µM. Further, the TGI was 49.3 µM in the assay with ACHN renal, greater than 100 µM with NCI-H522 lung, greater than 81.6 µM in the assay on U251 CNS and greater than 100 µM in the assay with HT29 colon.

`CSc1nc(N)c2c(n1)NC(c1ccccc1)C1CCc3ccccc3C1=N2` (centres undefined): the GI50 was greater than 100 µM with UACC-257 melanoma; greater than 100 µM with SF-539 CNS; 30.9 µM in the assay with SN12C renal; greater than 100 µM in the assay on TK-10 renal; 7.16 µM in the assay with LOX IMVI melanoma; 1.61 µM in the assay on IGROV1 ovarian. Also, the GI50 is 84.4 µM in the assay with ACHN renal, 2.59 µM in the assay on NCI-H522 lung, greater than 100 µM in the assay on U251 CNS and 7.63 µM in the assay with HT29 colon. Moreover, the TGI in the assay on UACC-257 melanoma is greater than 100 µM; in the assay with SF-539 CNS, greater than 100 µM; in the assay with SN12C renal it was greater than 100 µM; in the assay with TK-10 renal, greater than 100 µM; with LOX IMVI melanoma it was greater than 100 µM; in the assay on IGROV1 ovarian it was 74 µM. In addition, the TGI is greater than 100 µM with ACHN renal, 8.84 µM with NCI-H522 lung, greater than 100 µM in the assay on U251 CNS and greater than 100 µM with HT29 colon.

As to `CC1(C)N=C(N)N=C(N)N1c1ccc(Cl)c(Cl)c1`, the GI50 in the assay with UACC-257 melanoma was greater than 41.6 µM; in the assay on SF-539 CNS, 0.201 µM; in the assay with SN12C renal it was 0.694 µM; in the assay on LOX IMVI melanoma, 0.0879 µM; in the assay with IGROV1 ovarian, 0.356 µM; in the assay on ACHN renal it was 0.683 µM. Further, the figures for the GI50 in the assay with NCI-H522 lung, with U251 CNS and in the assay on HT29 colon were 6.67 µM, 0.0887 µM and 0.1 µM, respectively. The TGI with UACC-257 melanoma is greater than 100 µM; with SF-539 CNS, greater than 54 µM; in the assay with SN12C renal, greater than 100 µM; with TK-10 renal, greater than 100 µM; in the assay on LOX IMVI melanoma it was greater than 100 µM; in the assay with IGROV1 ovarian it was greater than 100 µM. Also, the TGI in the assay with ACHN renal, in the assay on NCI-H522 lung, in the assay on U251 CNS and with HT29 colon was greater than 100 µM in each case.

For `CNC(=O)c1cc2c(Oc3ccc(NC(=S)NC(=O)Cc4ccccc4)cc3F)ccnc2cc1OC`, the GI50 with UACC-257 melanoma is 9.5 µM; in the assay with SF-539 CNS, 0.549 µM; in the assay with SN12C renal, 2.18 µM; in the assay with TK-10 renal it was 5.99 µM; with LOX IMVI melanoma it was 4.13 µM; in the assay on IGROV1 ovarian, 5.96 µM. Further, the GI50 was 3.5 µM with ACHN renal, 10 µM in the assay on NCI-H522 lung, greater than 100 µM in the assay with U251 CNS and 3.16 µM with HT29 colon. Besides, the TGI in the assay on UACC-257 melanoma was greater than 100 µM; with SF-539 CNS it was greater than 30.3 µM; in the assay on SN12C renal, greater than 100 µM; in the assay on TK-10 renal, greater than 100 µM; in the assay with LOX IMVI melanoma, greater than 100 µM; in the assay on IGROV1 ovarian, greater than 100 µM. In addition, the TGI in the assay on ACHN renal, in the assay on NCI-H522 lung, in the assay with U251 CNS and in the assay with HT29 colon was greater than 100 µM throughout.

Consider `C#C/C=C/CC1OC(C(Br)CC)CC(Br)C2CC1O2` (centres undefined), for which the TGI with UACC-257 melanoma is greater than 100 µM; with SF-539 CNS it was greater than 100 µM; with SN12C renal, greater than 100 µM; with TK-10 renal it was greater than 100 µM; in the assay on LOX IMVI melanoma, 3.39 µM; in the assay with IGROV1 ovarian, 14.6 µM. The TGI with ACHN renal was greater than 100 µM; with NCI-H522 lung it was 21.1 µM; in the assay on U251 CNS, greater than 100 µM; in the assay on HT29 colon, greater than 100 µM.

The record behind these values is PubChem BioAssay (NCI).
